Active and inactive are the calls of the source.

The target of experiment [1] is T1, Neuropeptides B/W receptor type 1 (Homo sapiens, UniProt P48145).
T1 sequence (P48145 whole entry): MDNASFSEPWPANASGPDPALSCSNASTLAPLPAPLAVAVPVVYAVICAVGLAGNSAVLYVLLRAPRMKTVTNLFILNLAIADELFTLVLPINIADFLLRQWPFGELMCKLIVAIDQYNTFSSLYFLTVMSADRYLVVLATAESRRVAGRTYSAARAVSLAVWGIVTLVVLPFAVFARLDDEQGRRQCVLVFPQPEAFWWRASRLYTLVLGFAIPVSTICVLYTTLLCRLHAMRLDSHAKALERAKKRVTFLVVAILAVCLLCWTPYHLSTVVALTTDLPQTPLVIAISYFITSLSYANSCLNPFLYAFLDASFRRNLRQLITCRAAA
The experiment can be described thus: GPR7 antagonist potency, late-stage follow-up, cell-based, fluorescence, dose response, set 6 (AID 588583). In kind it is functional.

Experiment [2] has as its target Melanin-concentrating hormone receptor 1 (Homo sapiens, UniProt Q99705). The experiment can be described thus: Late-stage fluorescence-based counterscreen for antagonists of the G-protein coupled receptor 7 (GPR7): cell-based dose response assay to identify antagonists of the melanin-concentrating hormone receptor 1 (MCHR1) Set 6. Format: functional. For orientation: The purpose of a counterscreen is to sort out artefacts and off-target activity.

The target in experiment [3] is T2, Sentrin-specific protease 8 (Homo sapiens, UniProt Q96LD8).
T2 sequence (Q96LD8 whole entry): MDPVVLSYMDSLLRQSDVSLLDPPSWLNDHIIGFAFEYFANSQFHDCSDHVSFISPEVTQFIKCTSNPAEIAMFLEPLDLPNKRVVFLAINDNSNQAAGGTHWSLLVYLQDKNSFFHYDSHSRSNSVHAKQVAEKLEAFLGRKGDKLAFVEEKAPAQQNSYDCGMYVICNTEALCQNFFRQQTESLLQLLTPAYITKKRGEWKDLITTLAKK
The experiment can be described thus: SENP8 protease inhibitors, SAR follow-up, biochemical, luminescence, set 2 (AID 588601). Format: functional.

The target of experiment [4] is T3, Caspase-3 (Homo sapiens, UniProt P42574).
T3 sequence (P42574 whole entry): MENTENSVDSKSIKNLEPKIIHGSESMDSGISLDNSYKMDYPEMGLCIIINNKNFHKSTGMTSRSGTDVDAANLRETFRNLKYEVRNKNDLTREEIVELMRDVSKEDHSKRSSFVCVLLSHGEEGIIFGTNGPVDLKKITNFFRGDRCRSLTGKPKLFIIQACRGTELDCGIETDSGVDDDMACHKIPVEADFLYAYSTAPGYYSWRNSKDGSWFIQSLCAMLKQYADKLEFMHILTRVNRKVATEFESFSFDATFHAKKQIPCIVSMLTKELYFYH
The experiment can be described thus: caspase-3 inhibitors as off-family protease, SAR follow-up, selectivity assay for SENP protease inhibitor project, biochemical, luminescence, set 2 (AID 588599). In kind it is functional.

Experiment [5] concerns the target T4, Sentrin-specific protease 6 (Homo sapiens, UniProt Q9GZR1).
T4 sequence (Q9GZR1 whole entry): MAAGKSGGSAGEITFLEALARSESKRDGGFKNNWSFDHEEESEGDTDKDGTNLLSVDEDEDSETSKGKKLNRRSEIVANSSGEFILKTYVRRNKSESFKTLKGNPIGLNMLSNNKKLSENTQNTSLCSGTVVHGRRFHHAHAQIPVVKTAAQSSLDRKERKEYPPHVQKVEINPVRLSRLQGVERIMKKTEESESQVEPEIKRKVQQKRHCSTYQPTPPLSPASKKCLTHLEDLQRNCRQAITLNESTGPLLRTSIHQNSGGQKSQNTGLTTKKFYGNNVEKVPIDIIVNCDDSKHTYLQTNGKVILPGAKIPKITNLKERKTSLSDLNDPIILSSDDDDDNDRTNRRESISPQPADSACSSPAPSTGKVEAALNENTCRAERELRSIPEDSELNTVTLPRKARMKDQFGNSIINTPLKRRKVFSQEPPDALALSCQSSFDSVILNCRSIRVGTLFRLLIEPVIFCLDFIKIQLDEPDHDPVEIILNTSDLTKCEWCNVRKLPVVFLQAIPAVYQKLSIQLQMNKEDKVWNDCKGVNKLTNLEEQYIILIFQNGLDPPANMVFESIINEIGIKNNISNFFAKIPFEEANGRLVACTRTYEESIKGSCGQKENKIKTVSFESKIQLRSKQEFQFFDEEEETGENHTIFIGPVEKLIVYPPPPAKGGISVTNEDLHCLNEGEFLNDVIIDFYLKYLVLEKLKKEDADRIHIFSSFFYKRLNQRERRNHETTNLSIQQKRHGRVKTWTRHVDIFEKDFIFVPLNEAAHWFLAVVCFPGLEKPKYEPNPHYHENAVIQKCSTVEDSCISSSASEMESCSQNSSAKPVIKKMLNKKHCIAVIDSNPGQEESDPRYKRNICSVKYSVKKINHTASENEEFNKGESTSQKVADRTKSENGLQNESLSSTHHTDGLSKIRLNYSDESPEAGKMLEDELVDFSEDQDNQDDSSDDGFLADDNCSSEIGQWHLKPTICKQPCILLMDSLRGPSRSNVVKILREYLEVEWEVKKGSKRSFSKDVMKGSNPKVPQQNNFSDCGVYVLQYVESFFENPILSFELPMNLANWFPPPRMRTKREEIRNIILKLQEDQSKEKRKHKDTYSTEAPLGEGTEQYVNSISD
The experiment can be described thus: SENP6 protease inhibitors, SAR follow-up, biochemical, luminescence, set 2 (AID 588598). In kind it is functional.

In experiment [6] the target is T5, Sentrin-specific protease 7 (Homo sapiens, UniProt Q9BQF6).
T5 sequence (Q9BQF6 whole entry): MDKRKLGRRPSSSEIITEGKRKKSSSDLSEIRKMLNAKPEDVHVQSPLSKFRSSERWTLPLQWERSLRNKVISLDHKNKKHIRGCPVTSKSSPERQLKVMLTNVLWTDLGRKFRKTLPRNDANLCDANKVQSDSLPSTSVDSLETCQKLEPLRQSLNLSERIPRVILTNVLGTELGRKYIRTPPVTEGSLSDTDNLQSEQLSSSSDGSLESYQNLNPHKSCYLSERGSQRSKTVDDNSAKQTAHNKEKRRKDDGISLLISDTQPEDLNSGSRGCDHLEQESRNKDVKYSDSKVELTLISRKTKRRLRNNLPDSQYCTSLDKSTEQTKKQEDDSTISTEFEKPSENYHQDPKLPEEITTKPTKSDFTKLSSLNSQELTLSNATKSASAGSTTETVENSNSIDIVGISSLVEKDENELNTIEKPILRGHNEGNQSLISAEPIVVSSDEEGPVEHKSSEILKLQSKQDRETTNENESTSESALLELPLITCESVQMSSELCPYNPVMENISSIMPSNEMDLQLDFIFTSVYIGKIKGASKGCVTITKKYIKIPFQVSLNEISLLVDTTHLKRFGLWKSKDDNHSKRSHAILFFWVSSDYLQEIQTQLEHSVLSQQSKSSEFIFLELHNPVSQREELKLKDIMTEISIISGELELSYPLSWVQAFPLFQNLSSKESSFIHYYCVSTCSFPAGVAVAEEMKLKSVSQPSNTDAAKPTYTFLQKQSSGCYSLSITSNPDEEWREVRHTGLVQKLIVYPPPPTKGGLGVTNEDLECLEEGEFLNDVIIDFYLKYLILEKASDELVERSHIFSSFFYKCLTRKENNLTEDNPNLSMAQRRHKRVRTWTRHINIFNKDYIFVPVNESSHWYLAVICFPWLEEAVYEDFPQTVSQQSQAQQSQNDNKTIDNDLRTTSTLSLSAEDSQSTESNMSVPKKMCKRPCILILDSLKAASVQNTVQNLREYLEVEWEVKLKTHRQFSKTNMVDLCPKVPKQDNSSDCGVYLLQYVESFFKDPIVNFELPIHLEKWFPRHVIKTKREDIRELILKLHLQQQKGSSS
Nature of the experiment: SENP7 protease inhibitors, SAR follow-up, biochemical, luminescence, set 2 (AID 588600). Format: functional.

Experiment [7] relates to HEK293. The experiment can be described thus: optical interference in Abeta FP readout, dose response, artefact control for IDE activator project, biochemical, fluorescence polarization (AID 588442). In kind it is functional, cell-based. Particulars: Homo sapiens.
Experiment [8] is described as follows: inhibitors of intracellular T. cruzi replication, confirmation, NIH3T3 host cells, beta-gal luminescence (AID 2044).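 Note: intracellular parasites grown in NIH/3T3 mouse fibroblasts as host cells; luminescent beta-galactosidase reporter signal from transgenic T. cruzi replicating inside host cells; inhibitors lower the luminescence signal.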 In kind it is functional, cell-based.
The subject of another experiment is Vero. The experiment can be described thus: host cell cytotoxicity of antiviral hits, dose response, cytotoxicity control for West Nile virus antiviral project, secondary assay (AID 1650). Format: functional. Particulars: Chlorocebus sabaeus.
A short description of experiment [9]: cytotoxicity toward NIH3T3 fibroblasts, dose response, counter-screen, cell-based, ATP luminescence, mouse fibroblasts (AID 2010).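 Note: cells exposed to compound for about 90 hours before reading.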 Format: functional.
The subject of experiment [10] is HEK293. Nature of the experiment: HEK cell cytotoxicity by LDH release, dose response, cytotoxicity control for IDE activator project, fluorescence, HEK cells (AID 588440).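 Note: cytotoxicity by LDH release measuring loss of membrane integrity.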 Format: functional, cell-based. The note with it: Homo sapiens.
The target of experiment [11] is T6, Insulin-degrading enzyme (Homo sapiens, UniProt P14735).
T6 sequence (P14735 whole entry): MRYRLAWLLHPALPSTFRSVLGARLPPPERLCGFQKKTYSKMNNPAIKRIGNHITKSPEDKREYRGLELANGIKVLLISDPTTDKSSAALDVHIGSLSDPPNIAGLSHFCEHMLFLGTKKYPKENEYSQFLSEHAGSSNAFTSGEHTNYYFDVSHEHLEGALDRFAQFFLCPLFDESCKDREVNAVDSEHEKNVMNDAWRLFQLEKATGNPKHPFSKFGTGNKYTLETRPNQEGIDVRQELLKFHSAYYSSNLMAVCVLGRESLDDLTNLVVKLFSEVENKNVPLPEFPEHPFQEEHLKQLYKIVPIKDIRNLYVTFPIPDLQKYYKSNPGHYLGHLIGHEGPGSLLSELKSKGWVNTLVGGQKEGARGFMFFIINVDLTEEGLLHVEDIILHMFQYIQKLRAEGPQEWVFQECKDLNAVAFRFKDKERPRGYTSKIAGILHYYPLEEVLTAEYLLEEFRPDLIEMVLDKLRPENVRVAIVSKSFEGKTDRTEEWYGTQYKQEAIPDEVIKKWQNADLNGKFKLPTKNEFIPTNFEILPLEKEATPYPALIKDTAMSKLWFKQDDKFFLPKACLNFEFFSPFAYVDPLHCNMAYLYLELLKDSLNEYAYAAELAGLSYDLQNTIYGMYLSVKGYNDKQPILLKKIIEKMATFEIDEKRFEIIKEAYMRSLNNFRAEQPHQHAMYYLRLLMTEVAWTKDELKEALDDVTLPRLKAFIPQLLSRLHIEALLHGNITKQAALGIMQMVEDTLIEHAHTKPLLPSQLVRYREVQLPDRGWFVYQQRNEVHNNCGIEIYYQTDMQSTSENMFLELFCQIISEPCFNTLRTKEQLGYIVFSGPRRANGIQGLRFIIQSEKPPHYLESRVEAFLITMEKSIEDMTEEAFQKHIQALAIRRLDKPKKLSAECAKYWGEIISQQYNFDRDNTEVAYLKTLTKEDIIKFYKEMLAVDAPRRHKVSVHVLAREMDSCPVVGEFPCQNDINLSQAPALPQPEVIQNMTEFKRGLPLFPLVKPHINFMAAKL
The experiment can be described thus: activators of recombinant IDE enzyme, dose response, counter-screen for IDE activator project, biochemical, fluorescence polarization (AID 588681).

The target of experiment [12] is T6, Insulin-degrading enzyme. The experiment can be described thus: activators of endogenous IDE in HEK cells, dose response, cell-based, fluorescence polarization (AID 588439). In kind it is functional. Background: Polarisation of emitted light reports the rotation of a fluorescent probe.
Experiment [13] has as its target T4, Sentrin-specific protease 6. Nature of the experiment: SAR Analysis of small molecule inhibitors of Sentrin-specific protease 6 (SENP6) using a Luminescent assay. [Related pubchem assays (depositor defined):AID2582, AID2599]. In kind it is functional.
In experiment [14] the target is T2, Sentrin-specific protease 8. The experiment can be described thus: SENP8 protease inhibitors, SAR follow-up, biochemical, luminescence (AID 504501). Format: functional.
Experiment [15] has as its target T5, Sentrin-specific protease 7. Nature of the experiment: SENP7 protease inhibitors, SAR follow-up, biochemical, luminescence (AID 504497). In kind it is functional.
Experiment [16] concerns the target T3, Caspase-3. The experiment can be described thus: SAR Analysis of small molecule inhibitors of Sentrin-specific proteases (SENPs) using a Caspase-3 Selectivity assay. [Related pubchem assays (depositor defined):AID2540, AID2599, AID434973, AID489001]. In kind it is functional.
For experiment [17], the target named is Ras and Rab interactor 1/Tyrosine-protein kinase ABL1 (Homo sapiens, UniProt P00519+Q13671). In kind it is functional.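 Note: biochemical TR-FRET dose-response test measuring inhibition of binding between Rin1 and Abl proteins.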
Ras and Rab interactor 1/Tyrosine-protein kinase ABL1, sequence (P00519 whole entry): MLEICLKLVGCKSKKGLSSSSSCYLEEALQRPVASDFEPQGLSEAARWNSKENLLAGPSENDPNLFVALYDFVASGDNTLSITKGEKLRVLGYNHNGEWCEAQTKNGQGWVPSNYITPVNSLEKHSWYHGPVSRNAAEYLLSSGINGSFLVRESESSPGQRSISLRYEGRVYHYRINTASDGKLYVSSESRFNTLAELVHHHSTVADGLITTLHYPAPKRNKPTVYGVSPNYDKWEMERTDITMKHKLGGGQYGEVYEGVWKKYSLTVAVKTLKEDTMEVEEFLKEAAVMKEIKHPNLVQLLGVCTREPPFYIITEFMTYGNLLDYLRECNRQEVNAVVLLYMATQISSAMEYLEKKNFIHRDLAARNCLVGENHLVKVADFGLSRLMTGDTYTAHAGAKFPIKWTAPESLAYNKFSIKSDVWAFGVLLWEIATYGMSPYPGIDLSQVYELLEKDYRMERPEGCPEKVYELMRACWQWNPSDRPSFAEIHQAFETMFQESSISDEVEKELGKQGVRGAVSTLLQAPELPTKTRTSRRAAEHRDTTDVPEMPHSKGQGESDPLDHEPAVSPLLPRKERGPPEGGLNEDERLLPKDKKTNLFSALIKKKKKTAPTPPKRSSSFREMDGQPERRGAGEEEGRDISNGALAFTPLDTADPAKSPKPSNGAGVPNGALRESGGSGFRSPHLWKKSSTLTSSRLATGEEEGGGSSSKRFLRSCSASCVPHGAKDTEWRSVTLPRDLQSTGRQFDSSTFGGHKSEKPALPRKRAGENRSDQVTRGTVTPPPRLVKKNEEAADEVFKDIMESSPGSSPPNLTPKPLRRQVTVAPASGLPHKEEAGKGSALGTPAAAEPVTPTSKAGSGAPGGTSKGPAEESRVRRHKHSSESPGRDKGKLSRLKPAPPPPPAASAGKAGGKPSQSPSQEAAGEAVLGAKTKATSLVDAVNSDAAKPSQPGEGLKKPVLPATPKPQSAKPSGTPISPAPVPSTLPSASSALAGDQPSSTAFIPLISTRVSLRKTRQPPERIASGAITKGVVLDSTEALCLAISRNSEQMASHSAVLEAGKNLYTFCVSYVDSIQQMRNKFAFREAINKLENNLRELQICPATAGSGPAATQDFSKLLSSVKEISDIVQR
Ras and Rab interactor 1/Tyrosine-protein kinase ABL1, sequence (Q13671 whole entry): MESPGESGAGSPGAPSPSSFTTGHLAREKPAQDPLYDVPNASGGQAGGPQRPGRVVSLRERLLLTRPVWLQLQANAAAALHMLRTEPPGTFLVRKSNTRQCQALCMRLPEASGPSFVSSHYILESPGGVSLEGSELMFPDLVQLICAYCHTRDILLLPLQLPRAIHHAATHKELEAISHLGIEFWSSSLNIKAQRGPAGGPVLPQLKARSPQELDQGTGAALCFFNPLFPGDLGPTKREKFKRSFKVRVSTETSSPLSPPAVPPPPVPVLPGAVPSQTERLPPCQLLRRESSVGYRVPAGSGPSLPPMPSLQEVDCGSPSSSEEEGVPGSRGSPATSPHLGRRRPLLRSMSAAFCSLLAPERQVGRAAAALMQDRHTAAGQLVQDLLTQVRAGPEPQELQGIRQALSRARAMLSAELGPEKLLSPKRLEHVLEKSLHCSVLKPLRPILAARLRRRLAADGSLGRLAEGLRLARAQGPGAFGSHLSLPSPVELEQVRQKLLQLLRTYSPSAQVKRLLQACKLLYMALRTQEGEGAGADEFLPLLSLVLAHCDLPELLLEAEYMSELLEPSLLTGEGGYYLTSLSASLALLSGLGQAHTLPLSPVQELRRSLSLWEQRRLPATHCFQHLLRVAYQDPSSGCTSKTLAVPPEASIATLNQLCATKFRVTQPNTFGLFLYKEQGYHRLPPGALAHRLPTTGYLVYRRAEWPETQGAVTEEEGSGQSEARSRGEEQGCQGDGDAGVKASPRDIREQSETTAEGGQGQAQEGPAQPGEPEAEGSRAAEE

Melanin-concentrating hormone receptor 1, sequence (Q99705 whole entry): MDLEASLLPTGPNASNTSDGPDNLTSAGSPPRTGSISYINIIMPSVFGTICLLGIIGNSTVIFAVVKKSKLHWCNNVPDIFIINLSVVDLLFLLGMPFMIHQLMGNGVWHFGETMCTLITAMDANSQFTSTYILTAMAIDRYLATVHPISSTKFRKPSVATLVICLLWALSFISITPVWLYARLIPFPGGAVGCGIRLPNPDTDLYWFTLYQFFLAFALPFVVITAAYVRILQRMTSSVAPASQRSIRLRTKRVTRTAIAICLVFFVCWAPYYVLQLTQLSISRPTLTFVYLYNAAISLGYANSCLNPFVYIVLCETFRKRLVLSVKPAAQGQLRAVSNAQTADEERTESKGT

As to `O=c1c(-c2ccccc2)c(Br)cnn1Cc1cccc2ccccc12`, the IC50 in experiment [1] and in [2] was 12 µM (inactive) in each case.

On to `CCN(C(=O)c1cc(S(=O)(=O)N(CC)CC)ccc1C)c1nc2ccccc2s1`, for which the IC50 (in experiment [3]; on Caspase-3 [4]; in experiment [5]; in experiment [6]) was > 99 µM (inactive) in each case.

In the case of `CCN1CCN(c2cc(C)c3cc(NC(=S)N4CCN(c5ccccc5)CC4)ccc3n2)CC1`, the EC50 (as a rule, the concentration giving half of the maximal effect) with HEK293 [7] was > 54.7 µM (inactive); in [8], 1.79 µM (active); in [9], > 60 µM (not active); on Insulin-degrading enzyme [11], > 54.7 µM (inactive); on Insulin-degrading enzyme [12], > 54.7 µM (inactive). The CC50 (as a rule, the concentration giving 50% cytotoxicity) with Vero is 19.5 µM (active). Further, the IC50 (commonly the concentration needed to halve the response being measured) in the experiment on HEK293 [10] was > 89.2 µM (inactive).

On to `O=C(Nc1nc2ccccc2s1)c1nccs1`, for which the IC50 in [13] was 2.1 µM (active); in [3], 1.55 µM (active); in experiment [14], 2.1 µM (active); in [15], 1.4 µM (active); at Caspase-3 [4], 1.01 µM (active); in experiment [5], 1.49 µM (active). The IC50 at Caspase-3 [16] is 0.9 µM (active); in [6], 1.54 µM (active).

For the compound `Cc1cc(C(C#N)c2c(Cl)cnn(Cc3cccc4ccccc34)c2=O)on1` (centres undefined), the IC50 in [1] and in experiment [2] was 0.136 µM (active) throughout.

Take `O=C(CC1SCCNC1=O)Nc1cc(Cl)cc(Cl)c1` (centres undefined): the IC50 in [17] was 26.4 µM (inactive).

For the origin of these results see ChEMBL document CHEMBL1201862, “PubChem BioAssay data set” (2004).
